From patent publication US9328099B2, “Cyanomethylpyrazole carboxamides as janus kinase inhibitors” (Merck Sharp & Dohme Corp., priority 2011, dated 2016)

Tests used:
JAK1 = JAK1 (Homo sapiens (Human), UniProt P23458); assay: Jak Biochemical HTRF Assay, JAK1; settings: HTRF biochemical assay, GST-tagged catalytic domain; top concentration tested […]; read-out: JAK1 IC50
Source text: (§1) Jak Biochemical HTRF Assay Protocol
(§2) Subsequent reagent additions employed an Agilent Bravo.

JAK2 = JAK2 (Homo sapiens (Human), UniProt O60674); assay: Jak Biochemical HTRF Assay, JAK2; settings: HTRF biochemical assay, GST-tagged catalytic domain; top concentration tested […]
Source text: as §1, §2

JAK2, sequence (O60674 849-1124): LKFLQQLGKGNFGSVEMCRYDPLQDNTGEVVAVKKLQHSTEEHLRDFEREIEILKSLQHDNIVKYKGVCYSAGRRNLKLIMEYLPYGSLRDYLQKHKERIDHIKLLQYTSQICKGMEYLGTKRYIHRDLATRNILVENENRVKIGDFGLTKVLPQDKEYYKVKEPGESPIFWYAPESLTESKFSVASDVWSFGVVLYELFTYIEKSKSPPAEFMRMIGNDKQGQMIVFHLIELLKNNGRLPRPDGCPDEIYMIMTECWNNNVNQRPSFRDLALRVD
JAK1, sequence (P23458 875-1153): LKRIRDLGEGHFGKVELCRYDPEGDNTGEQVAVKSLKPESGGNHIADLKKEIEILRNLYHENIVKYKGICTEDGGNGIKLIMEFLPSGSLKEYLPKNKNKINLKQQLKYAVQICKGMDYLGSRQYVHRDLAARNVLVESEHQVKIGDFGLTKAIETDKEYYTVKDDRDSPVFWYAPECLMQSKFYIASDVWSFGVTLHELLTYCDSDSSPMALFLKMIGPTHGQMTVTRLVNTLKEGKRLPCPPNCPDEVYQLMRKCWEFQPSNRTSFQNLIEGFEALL

Row | IC50 (JAK1) [nM] | IC50 (JAK2) [nM] | SMILES
1 | 14 | 280 | N#CCC1(n2cc(C(N)=O)c(Nc3ccc(F)cc3)n2)CCN(Cc2cccc3[nH]ccc23)CC1 [Example 22-57, 1-[4-(cyanomethyl)-1-(1H-indol-4-ylmethyl)piperidin-4-yl]-3-[(4-fluorophenyl)amino]-1H-pyrazole-4-carboxamide]
2 | 4 | 128 | N#CCC1(n2cc(C(N)=O)c(Nc3ccc(F)cc3)n2)CCN(Cc2cccc3cc[nH]c23)CC1 [Example 22-58, 1-[4-(cyanomethyl)-1-(1H-indol-7-ylmethyl)piperidin-4-yl]-3-[(4-fluorophenyl)amino]-1H-pyrazole-4-carboxamide]
3 | 22 | 221 | CS(=O)(=O)c1ccc(Nc2nn(C3(CC#N)CN(C(=O)OC4CCOC4)C3)cc2C(N)=O)cc1 (stereo not drawn) [Example 30-75, tetrahydrofuran-3-yl 3-(4-carbamoyl-3-{[4-(methylsulfonyl)phenyl]amino)-1H-pyrazol-1-yl)-3-(cyanomethyl)azetidine-1-carboxylate]
4 | 3 | 103 | N#CCC1(n2cc(C(N)=O)c(Nc3ccccc3)n2)CCN(C(=O)OC2CCOCC2)CC1 [Example 30-37, tetrahydro-2H-pyran-4-yl 4-[4-carbamoyl-3-(phenylamino)-1H-pyrazol-1-yl]-4-(cyanomethyl)piperidine-1-carboxylate]
5 | 74 | 1180 | Cc1c[nH]c(CN2CCC(CC#N)(n3cc(C(N)=O)c(Nc4ccnc(F)c4)n3)CC2)n1 [Example 22-4, 1-{4-(cyanomethyl)-1-[(4-methyl-1H-imidazol-2-yl)methyl]piperidin-4-yl}-3-[(2-fluoropyridin-4-yl)amino]-1H-pyrazole-4-carboxamide]
6 | 0.1 | 2 | CC(C)NC(=O)N1CCC(CC#N)(n2cc(C(N)=O)c(Nc3ccc(S(=O)(=O)C(F)(F)F)cc3)n2)CC1 [Example 38-44, 4-(4-carbamoyl-3-(4-(trifluoromethylsulfonyl)phenylamino)-1H-pyrazol-1-yl)-4-(cyanomethyl)-N-isopropylpiperidine-1-carboxamide]
7 | 0.3 | 3 | N#CCC1(n2cc(C(N)=O)c(Nc3ccc(C4CCC4)nc3)n2)CCN(C(=O)OCC(F)F)CC1 [Example 9-38, 2,2-difluoroethyl 4-{4-carbamoyl-3-[(6-cyclobutylpyridin-3-yl)amino]-1H-pyrazol-1-yl}-4-(cyanomethyl)piperidine-1-carboxylate]
8 | 15 | 35 | N#CCC1(n2cc(C(N)=O)c(Nc3ccccc3)n2)CCN(S(=O)(=O)Cc2ccccc2)CC1 [Example 37-8, 1-[1-(benzylsulfonyl)-4-(cyanomethyl)piperidin-4-yl]-3-(phenylamino)-1H-pyrazole-4-carboxamide]
9 | 0.3 | 0.7 | CC(C)(C)OC(=O)N1CCC(CC#N)(n2cc(C(N)=O)c(Nc3ccc(C(=O)N4CCOCC4)cc3)n2)CC1 [Example 9-25, tert-butyl 4-(4-carbamoyl-3-{[4-(morpholin-4-ylcarbonyl)phenyl]amino}-1H-pyrazol-1-yl)-4-(cyanomethyl)piperidine-1-carboxylate]
10 | 11 | 162 | Cc1ccccc1NC(=O)N1CC(CC#N)(n2cc(C(N)=O)c(Nc3ccccc3)n2)C1 [Example 38-27, 1-{3-(cyanomethyl)-1-[(2-methylphenyl)carbamoyl]azetidin-3-yl}-3-(phenylamino)-1H-pyrazole-4-carboxamide]
11 | 0.2 | 3 | CCC(F)(F)C(=O)N1CCC(CC#N)(n2cc(C(N)=O)c(Nc3ccnc(F)c3)n2)CC1 [Example 34-59, 1-[4-(cyanomethyl)-1-(2,2-difluorobutanoyl)piperidin-4-yl]-3-[(2-fluoropyridin-4-yl)amino]-1H-pyrazole-4-carboxamide]
12 | 0.1 | 1 | CC(C)(C)OC(=O)N1CCC(CC#N)(n2cc(C(N)=O)c(Nc3ccc(S(N)(=O)=O)cc3)n2)CC1 [Example 9-20, tert-butyl 4-{4-carbamoyl-3-[(4-sulfamoylphenyl)amino]-1H-pyrazol-1-yl}-4-(cyanomethyl)piperidine-1-carboxylate]
13 | 0.7 | 41 | N#CCC1(n2cc(C(N)=O)c(Nc3ccnc(F)c3)n2)CCN(Cc2cccc3cc[nH]c23)CC1 [Example 22-21, 1-[4-(cyanomethyl)-1-(1H-indol-7-ylmethyl)piperidin-4-yl]-3-[(2-fluoropyridin-4-yl)amino]-1H-pyrazole-4-carboxamide]
14 | 0.02 | 0.2 | N#CCC1(n2cc(C(N)=O)c(Nc3ccc(S(=O)(=O)C(F)F)cc3)n2)CCC(NCC(F)(F)F)CC1 (stereo not drawn) [Example 40-85, Cis or trans 1-{1-(cyanomethyl)-4-[(2,2,2-trifluoroethyl)amino]cyclohexyl}-3-({4-[(difluoromethyl)sulfonyl]phenyl}amino)-1H-pyrazole-4-carboxamide]
15 | 31 | 671 | COc1ccccc1COC(=O)N1CC(CC#N)(n2cc(C(N)=O)c(Nc3ccccc3)n2)C1 [Example 30-69, 2-methoxybenzyl 3-[4-carbamoyl-3-(phenylamino)-1H-pyrazol-1-yl]-3-(cyanomethyl)azetidine-1-carboxylate]
16 | 0.6 | 44 | CC(C)(C)CC(=O)N1CCC(CC#N)(n2cc(C(N)=O)c(Nc3ccnc(F)c3)n2)CC1 [Example 34-54, 1-[4-(cyanomethyl)-1-(3,3-dimethylbutanoyl)piperidin-4-yl]-3-[(2-fluoropyridin-4-yl)amino]-1H-pyrazole-4-carboxamide]
17 | 191 | > 1500 | CC(C)Oc1cccc(N2CCC(CC#N)(n3cc(C(N)=O)c(Nc4ccc(F)cc4)n3)CC2)n1 [Example 3-15, 1-{4-(cyanomethyl)-1-[6-(1-methylethoxy)pyridin-2-yl]piperidin-4-yl}-3-[(4-fluorophenyl)amino]-1H-pyrazole-4-carboxamide]
18 | 92 | 1050 | N#CCC1(n2cc(C(N)=O)c(Nc3ccccc3)n2)CCN(C(=O)c2cccc(N3CCOCC3)c2)CC1 [Example 34-28, 1-(4-(cyanomethyl)-1-[(3-morpholin-4-ylphenyl)carbonyl]piperidin-4-yl}-3-(phenylamino)-1H-pyrazole-4-carboxamide]
19 | 0.1 | 9 | N#CCC1(n2cc(C(N)=O)c(Nc3ccnc(F)c3)n2)CCN(C(=O)CCC(F)(F)F)CC1 [Example 34-57, 1-[4-(cyanomethyl)-1-(4,4,4-trifluorobutanoyl)piperidin-4-yl]-3-[(2-fluoropyridin-4-yl)amino]-1H-pyrazole-4-carboxamide]
20 | 64 | 775 | N#CCC1(n2cc(C(N)=O)c(Nc3ccc(S(=O)(=O)C(F)F)cc3)n2)CCC(N2CCC(F)(F)CC2)CC1 (stereo not drawn) [Example 40-42, Cis or trans 1-[1-(cyanomethyl)-4-(4,4-difluoropiperidin-1-yl)cyclohexyl]-3-({4-[(difluoromethyl)sulfonyl]phenyl}amino)-1H-pyrazole-4-carboxamide]
21 | 0.9 | 20 | N#CCC1(n2cc(C(N)=O)c(Nc3ccc(F)cc3)n2)CCN(C(=O)OCC2(O)CC2)CC1 [Example 30-13, (1-hydroxycyclopropyl)methyl 4-(4-carbamoyl-3-(4-fluorophenylamino)-1H-pyrazol-1-yl)-4-(cyanomethyl)piperidine-1-carboxylate]
